Experimental data as given in ChEMBL document CHEMBL3217548, “Biological activity and DNA binding studies of 2-substituted benzimidazo[1,2-a]quinolines bearing different amino side chains” (Medchemcomm, 2013).
pIC50: −log10 of the molar value. Active and inactive are the calls of the source. The calls are words filed in the database; no cut-off is given here.

How the values were obtained:
Calf thymus DNA [1] = assay: Binding affinity to calf thymus DNA assessed as DNA intercalation at 1 to 50 uM by circular dichroism analysis; type: nucleic-acid assay; details: Bos taurus
HCT-116 [2] = assay: Cytotoxicity against human HCT116 cells after 72 hrs by MTT assay; type: functional, cell-based; details: HCT-116, 72 h
Nucleic Acid = assay: DNA intercalating activity at Escherichia coli pUC19 plasmid assessed as effect on global structure of DNA helix at 5 to 50 uM incubated for 45 mins prior to topoisomerase1 addition by agarose gel electrophoresis; type: nucleic-acid assay
Calf thymus DNA [3] = assay: Binding affinity to calf thymus DNA assessed as change in melting temperature at 0.5 drug/DNA ratio by spectrophotometry; type: nucleic-acid assay; details: Bos taurus
Homo sapiens = organism: Homo sapiens; assay: Inhibition of human DNA topoisomerase 2 assessed as inhibition of DNA cleavage
[4] = molecular target: T1, DNA topoisomerase 1 (Homo sapiens) (UniProt P11387); assay: Inhibition of human DNA topoisomerase 1 assessed as inhibition of DNA cleavage
T1 sequence (whole entry): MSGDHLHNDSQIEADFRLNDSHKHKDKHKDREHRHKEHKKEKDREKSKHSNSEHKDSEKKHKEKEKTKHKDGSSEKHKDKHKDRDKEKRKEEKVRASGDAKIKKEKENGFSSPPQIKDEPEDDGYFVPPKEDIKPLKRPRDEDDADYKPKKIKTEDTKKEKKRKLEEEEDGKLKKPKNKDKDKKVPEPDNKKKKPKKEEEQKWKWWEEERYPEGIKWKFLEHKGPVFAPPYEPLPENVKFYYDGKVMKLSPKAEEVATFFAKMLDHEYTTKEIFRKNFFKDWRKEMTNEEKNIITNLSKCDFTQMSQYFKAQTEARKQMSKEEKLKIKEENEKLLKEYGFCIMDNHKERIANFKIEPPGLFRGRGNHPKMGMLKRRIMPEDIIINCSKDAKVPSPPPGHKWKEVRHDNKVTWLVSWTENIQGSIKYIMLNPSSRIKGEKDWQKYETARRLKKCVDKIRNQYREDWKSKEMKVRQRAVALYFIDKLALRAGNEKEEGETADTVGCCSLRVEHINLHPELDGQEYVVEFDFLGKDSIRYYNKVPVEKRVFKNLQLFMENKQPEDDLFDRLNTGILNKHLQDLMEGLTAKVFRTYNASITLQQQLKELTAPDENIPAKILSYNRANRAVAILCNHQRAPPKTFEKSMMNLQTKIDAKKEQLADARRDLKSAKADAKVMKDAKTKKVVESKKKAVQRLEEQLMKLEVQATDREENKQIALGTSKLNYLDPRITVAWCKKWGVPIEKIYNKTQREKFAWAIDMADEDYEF

[5] = Cytotoxicity against human H460 cells after 72 hrs by MTT assay; type: functional, cell-based; details: NCI-H460, 72 h
Escherichia coli [6] = assay: Binding affinity to Escherichia coli pUC19 plasmid assessed as nicked DNA at 5 to 50 uM by ethidium bromide staining-based agarose gel electrophoresis
MCF7 = assay: Cytotoxicity against human MCF7 cells after 72 hrs by MTT assay; type: functional, cell-based; details: MCF7, 72 h
DNA = assay: Induction of DNA damage in plasmid DNA in E. coli S30 cell-free system assessed as inhibition of EGFP translation at 50 uM after 1 hr by fluorescence assay
HCT-116 [7] = assay: Cell cycle arrest in human HCT116 cells assessed as accumulation at G2/M phase at 1 uM after 24 hrs by propidium iodide staining-based FACS analysis (reference value: 29 +/- 8 %); type: functional
HCT-116 [8] = assay: Cell cycle arrest in human HCT116 cells assessed as accumulation at subG1 phase at 5 uM after 24 hrs by propidium iodide staining-based FACS analysis; type: functional
HCT-116 [9] = assay: Cell cycle arrest in human HCT116 cells assessed as accumulation at G1 phase at 0.1 uM after 48 hrs by propidium iodide staining-based FACS analysis (reference value: 60 +/- 2 %); type: functional
Calf thymus DNA [10] = assay: Binding affinity to calf thymus DNA assessed as hypochromic shift at 20 uM by UV/visible spectrophotometry; type: nucleic-acid assay; details: Bos taurus
[11] = Drug uptake in human H460 cell cytoplasm at 10 uM after 2 hrs by fluorescence microscopy; type: ADME, cell-based; details: h460, 2 h
HCT-116 [12] = assay: Cell cycle arrest in human HCT116 cells assessed as accumulation at G2/M phase at 0.1 uM after 24 hrs by propidium iodide staining-based FACS analysis (reference value: 29 +/- 8 %); type: functional
HCT-116 [13] = assay: Cell cycle arrest in human HCT116 cells assessed as accumulation at G1 phase at 1 uM after 24 hrs by propidium iodide staining-based FACS analysis (reference value: 23 +/- 2 %); type: functional
HCT-116 [14] = assay: Cell cycle arrest in human HCT116 cells assessed as accumulation at G1 phase at 0.1 uM after 24 hrs by propidium iodide staining-based FACS analysis (reference value: 23 +/- 2 %); type: functional
HCT-116 [15] = assay: Cell cycle arrest in human HCT116 cells assessed as accumulation at subG1 phase at 1 uM after 24 hrs by propidium iodide staining-based FACS analysis (reference value: 2 +/- 0.1 %); type: functional
Escherichia coli [16] = assay: Induction of topoisomerase1-mediated Escherichia coli pUC19 plasmid relaxation at 20 to 50 uM incubated for 45 mins prior to topoisomerase1 addition by agarose gel electrophoresis
HCT-116 [17] = assay: Cell cycle arrest in human HCT116 cells assessed as accumulation at subG1 phase after 24 hrs by propidium iodide staining-based FACS analysis; type: functional
HCT-116 [18] = assay: Cell cycle arrest in human HCT116 cells assessed as accumulation at G2/M phase at 0.1 uM after 48 hrs by propidium iodide staining-based FACS analysis (reference value: 28 +/- 3 %); type: functional
HCT-116 [19] = assay: Cell cycle arrest in human HCT116 cells assessed as accumulation at S phase at 1 uM after 48 hrs by propidium iodide staining-based FACS analysis (reference value: 12+/- 5 %); type: functional
HCT-116 [20] = assay: Cell cycle arrest in human HCT116 cells assessed as accumulation at S phase at 0.1 uM after 48 hrs by propidium iodide staining-based FACS analysis (reference value: 12+/- 5 %); type: functional
HCT-116 [21] = assay: Cell cycle arrest in human HCT116 cells assessed as accumulation at S phase at 1 uM after 24 hrs by propidium iodide staining-based FACS analysis (reference value: 48 +/- 6 %); type: functional
HCT-116 [22] = assay: Cell cycle arrest in human HCT116 cells assessed as accumulation at S phase at 0.1 uM after 24 hrs by propidium iodide staining-based FACS analysis (reference value: 48 +/- 6 %); type: functional
HCT-116 [23] = assay: Cell cycle arrest in human HCT116 cells assessed as accumulation at subG1 phase at 1 uM after 48 hrs by propidium iodide staining-based FACS analysis (reference value: 5 +/- 2 %); type: functional
Escherichia coli [24] = assay: Binding affinity to Escherichia coli pUC19 plasmid assessed as induction of topoisomerase1-mediated DNA relaxation at 1 uM incubated for 45 mins prior to topoisomerase1 addition by agarose gel electrophoresis
HCT-116 [25] = assay: Cell cycle arrest in human HCT116 cells assessed as accumulation at subG1 phase at 0.1 uM after 24 hrs by propidium iodide staining-based FACS analysis (reference value: 2 +/- 0.1 %); type: functional
HCT-116 [26] = assay: Cell cycle arrest in human HCT116 cells assessed as accumulation at subG1 phase at 0.1 uM after 48 hrs by propidium iodide staining-based FACS analysis (reference value: 5 +/- 2 %); type: functional
HCT-116 [27] = assay: Cell cycle arrest in human HCT116 cells assessed as accumulation at G1 phase at 1 uM after 48 hrs by propidium iodide staining-based FACS analysis (reference value: 60 +/- 2 %); type: functional
HCT-116 [28] = assay: Cell cycle arrest in human HCT116 cells assessed as accumulation at G2/M phase at 1 uM after 48 hrs by propidium iodide staining-based FACS analysis (reference value: 28 +/- 3 %); type: functional

## CCCCCN(CCCCC)c1ccc2cc(C#N)c3nc4ccccc4n3c2c1
Calf thymus DNA [1]
  Activity: inactive
HCT-116 [2]
  pIC50: < 5.00
Nucleic Acid
  Activity: inactive
Calf thymus DNA [3]
  ΔTm: 0 °C
Homo sapiens
  Activity: inactive
[4]
  Activity: inactive
[5]
  pIC50: < 5.00
Escherichia coli [6]
  Activity: Active
MCF7
  pIC50: 4.41

## N#Cc1cc2ccc(N3CCCCC3)cc2n2c1nc1ccccc12
Calf thymus DNA [1]
  Activity: inactive
HCT-116 [2]
  pIC50: 5.10
Nucleic Acid
  Activity: inactive
Calf thymus DNA [3]
  ΔTm: 0 °C
Homo sapiens
  Activity: inactive
[4]
  Activity: inactive
[5]
  pIC50: 5.30
Escherichia coli [6]
  Activity: Active
MCF7
  pIC50: 5.70

## CNc1ccc2cc(C#N)c3nc4ccccc4n3c2c1
HCT-116 [2]
  pIC50: < 5.00
[5]
  pIC50: < 5.00
MCF7
  pIC50: 6.70

## CCCN(CCC)c1ccc2cc(C#N)c3nc4ccccc4n3c2c1
HCT-116 [2]
  pIC50: 6.30
[5]
  pIC50: 6.52
MCF7
  pIC50: 5.60

## COc1cccc2c1C(=O)c1c(O)c3c(c(O)c1C2=O)C[C@@](O)(C(=O)CO)C[C@@H]3O[C@H]1C[C@H](N)[C@H](O)[C@H](C)O1 [DOXORUBICIN]
DNA
  inhibition at 50 µM: 79%

## CCCCNc1ccc2cc(C#N)c3nc4ccccc4n3c2c1
HCT-116 [2]
  pIC50: 5.40
[5]
  pIC50: 5.70
MCF7
  pIC50: 6.00

## CCN(CC)c1ccc2cc(C#N)c3nc4ccccc4n3c2c1
HCT-116 [2]
  pIC50: 5.70
[5]
  pIC50: 5.80
MCF7
  pIC50: 5.70

## CC(C)CNc1ccc2cc(C#N)c3nc4ccccc4n3c2c1
Calf thymus DNA [1]
  Activity: inactive
HCT-116 [7]
  Activity: 85%
HCT-116 [2]
  pIC50: 6.22
HCT-116 [8]
  Activity: 40%
HCT-116 [9]
  Activity: 62%
Calf thymus DNA [10]
  Activity: Active
Calf thymus DNA [3]
  ΔTm: 3.8 °C
[11]
  Drug uptake: Active
HCT-116 [12]
  Activity: 42%
HCT-116 [13]
  Activity: 7%
DNA
  inhibition at 50 µM: 17%
HCT-116 [14]
  Activity: 14%
HCT-116 [15]
  Activity: 16%
Homo sapiens
  Activity: inactive
[4]
  Activity: inactive
Escherichia coli [16]
  Activity: inactive
HCT-116 [17]
  Activity: Dose-dependent effect
[5]
  pIC50: 6.52
HCT-116 [18]
  Activity: 17%
HCT-116 [19]
  Activity: 0%
HCT-116 [20]
  Activity: 21%
HCT-116 [21]
  Activity: 8%
Escherichia coli [6]
  Activity: Active
HCT-116 [22]
  Activity: 44%
HCT-116 [23]
  Activity: 30%
Escherichia coli [24]
  Activity: Active
MCF7
  pIC50: 6.40
HCT-116 [25]
  Activity: 4%
HCT-116 [26]
  Activity: 6%
HCT-116 [27]
  Activity: 10%
HCT-116 [28]
  Activity: 90%

## N#Cc1cc2ccc(N3CCOCC3)cc2n2c1nc1ccccc12
Calf thymus DNA [1]
  Activity: Active
HCT-116 [2]
  pIC50: 6.52
Calf thymus DNA [3]
  ΔTm: 0 °C
Homo sapiens
  Activity: inactive
[4]
  Activity: inactive
Escherichia coli [16]
  Activity: inactive
[5]
  pIC50: 6.52
Escherichia coli [6]
  Activity: Active
MCF7
  pIC50: 6.70

## CCN(CC)CCNc1ccc2cc(C#N)c3nc4ccccc4n3c2c1
HCT-116 [2]
  pIC50: 6.70
[5]
  pIC50: 6.70
MCF7
  pIC50: 6.52

## CC[C@@]1(O)C(=O)OCc2c1cc1n(c2=O)Cc2cc3ccccc3nc2-1
DNA
  inhibition: inactive

## COc1cc([C@@H]2c3cc4c(cc3[C@@H](O[C@@H]3O[C@@H]5CO[C@@H](C)O[C@H]5[C@H](O)[C@H]3O)[C@H]3COC(=O)[C@H]23)OCO4)cc(OC)c1O
DNA
  inhibition: inactive

## O=C(O)CCCc1ccc(N(CCCl)CCCl)cc1 [CHLORAMBUCIL]
DNA
  inhibition at 50 µM: 45%
